Measurements: patent US20040044006A1, “Methods of use of quinolone compounds against pneumococcal and haemophilus bacteria” (priority 1999, published 2004)
Values after ≈ are worked out from the molar mass of the structure shown. Read-outs that look alike come from different tables or passages of the source.

Key:
[1] = tested on: quinolone susceptible pneumococci (ciprofloxacin MICs ≦4.0 μg/ml); assay: Agar dilution MICs of 207 quinolone susceptible pneumococcal strains; type: cell-based, Streptococcus pneumoniae; settings: agar dilution; for MIC: read-out: MIC range
Description: All susceptible, and some intermediate and resistant strains, were recent U.S. isolates. The remainder of intermediate and resistant strains were isolated in South Africa, Spain, France, Central and Eastern Europe, and Korea. […] Additionally these strains were tested for mutations in parC, gyrA, parE, and gyrB (Pan, et al., Antimicrob. Agents Chemother. 40:2321-2326, 1996) and for efflux mechanism (Brenwald, et al., Antimicrob. Agents Chemother. 42:2032-2035, 1998). For time-kill studies, 4 penicillin susceptible, 4 intermediate and 4 resistant strains (2 quinolone resistant) were tested, while for PAE studies 5 quinolone susceptible and 1 resistant strains were studied.
(§1) Agar dilution methodology was performed on 234 strains as described previously (M. R. Jacobs, Clin. Infect. Dis. 15:119-127, 1992; Jacobs, et al., Rev. Med. Microbiol. 6:77-93, 1995), using Mueller-Hinton agar (BBL Microbiology Systems, Cockeysville, Md.) supplemented with 5% sheep blood. Broth MICs for 12 strains tested by time-kill and 6 tested by PAE were performed according to NCCLS recommendations (Methods for Dilution Antimicrobial Susceptibility Tests for Bacteria that Grow Aerobically, 3rd Edition, NCCLS, Villanova, Pa.) using cation-adjusted Mueller-Hinton broth with 5% lysed defibrinated horse blood. Standard quality control strains, including Streptococcus pneumoniae ATCC 49619, were included in each run of agar and broth dilution MICs.

pneumococcal strains = assay: Microbroth dilution MICs of strains tested by time-kill and PAE; type: cell-based; settings: Streptococcus pneumoniae, read-out: Microdilution MIC
Description: as §1

[2] = tested on: pneumococci (5 quinolone susceptible and 1 resistant strains); assay: Post-antibiotic effect (PAE) testing; type: cell-based, Streptococcus pneumoniae; settings: for PAE for non-quinolone compounds: range over strains
Description: The post-antibiotic effect (PAE) (Craig, et al., V. Lorian (ed.) Antibiotics in Laboratory Medicine, Williams and Wilkins, Baltimore, pages 296-399, 1996) was determined by the viable plate count method, using Mueller-Hinton broth (MHB) supplemented with 5% lysed horse blood when testing pneumococci. […] Additionally, the one quinolone resistant strain was exposed at quinolone concentrations 5×MIC. Tubes containing 5 ml broth with antibiotic were inoculated with approximately 5×10^6 cfu/ml. Growth controls with inoculum but no antibiotic were included with each experiment. Tubes were placed in a shaking water bath at 35° C. for 1 h. At the end of the exposure period, cultures were diluted 1:1000 to remove antibiotic.
Viability counts were determined before exposure and immediately after dilution (0 h), and then every 2 h until tube turbidity reached a #1 McFarland standard. Inocula were prepared by suspending growth from an overnight blood agar plate in broth. The broth was incubated at 35° C. for 2-4 h in a shaking water bath until turbidity matched a #1 McFarland standard, and checked for viability by plate counts (Spangler, et al., Antimicrob. Agents Chemother. 41:2173-9176, 1997; Spangler, et al., Antimicrob. Agents Chemother. 42:1253-1255, 1998).
The PAE was defined as PAE=T-C; T=time required for viability counts of an antibiotic-exposed culture to increase by 1 log10 above counts immediately after dilution; C=corresponding time for growth control. For each experiment, viability counts (log10 cfu/ml) were plotted against time, and results expressed as the mean of two separate assays±S D (Craig, et al., V. Lorian (ed), Antibiotics in Laboratory Medicine, Williams and Wilkins, Baltimore, pages 296-329, 1996).

[3] = tested on: quinolone resistant pneumococci; assay: Determination of efflux mechanism: MICs in the presence and absence of reserpine; type: cell-based, Streptococcus pneumoniae; settings: for number of strains with lower MICs in the presence of reserpine: of 28 quinolone resistant strains, 10 μg/ml reserpine
Description: MICs were determined in the presence and absence of 10 μg/ml of reserpine (Sigma Chemicals, St. Louis, Mo.) as known in the art.
MICs were determined in the presence and absence of […] of reserpine (Sigma Chemicals, St. Louis, Mo., USA) as described previously (Brenwald, et al., Antimicrob. Agents Chemother. 42:2039-2035, 1998 and Davies, et al., Antimicrob. Agents Chemother. 43:1177-1182S, 1999).

[4] = tested on: quinolone-resistant Haemophilus influenzae strains; assay: Microdilution MIC determination in HTM for quinolone-resistant Haemophilus influenzae strains; type: cell-based; settings: 9 quinolone-resistant Haemophilus influenzae strains
Description: Inocula were prepared from chocolate agar plates incubated for a full 24 hours by the direct colony suspension method as follows: In a tube of Mueller-Hinton broth (Difco), an organism suspension was made to a density of a 0.5 McFarland standard (1×10^8 CFU/ml). The latter inoculum was diluted in sterile saline such that final organisms suspensions in trays yielded colony counts of 3-8×10^5 CFU/ml. Frozen microdilution trays were obtained from MicroMedia Systems, Inc. (Cleveland, Ohio, USA). Each tray contained all antimicrobials prepared in freshly made HTM. Wells were inoculated with 100 μl suspensions and incubated in ambient air at 35° C. for 20-24 hours. The lowest drug concentration showing no growth was read as the MIC. Standard quality control strains, including H. influenzae ATCC 49766, H. influenzae ATCC 49247, Staphylococcus aureus ATCC 29213 and Escherichia coli ATCC 25922 were included with each run.

[5] = Streptococcus pneumoniae, Penicillin I strains
[6] = Streptococcus pneumoniae, Penicillin I strains, read-out: MIC90
[7] = Streptococcus pneumoniae, Penicillin R strains
[8] = Streptococcus pneumoniae, Penicillin R strains, read-out: MIC90
[9] = Streptococcus pneumoniae, Penicillin S strains
[10] = Streptococcus pneumoniae, Penicillin S strains, read-out: MIC90
[11] = strain 1 (S) penicillin susceptible
[12] = strain 2 (S) penicillin susceptible
[13] = strain 3 (S) penicillin susceptible, quinolone-resistant
[14] = strain 4 (S) penicillin susceptible, quinolone-resistant
[15] = strain 5 (I) penicillin intermediate
[16] = strain 6 (I) penicillin intermediate
[17] = strain 7 (I) penicillin intermediate
[18] = strain 8 (I) penicillin intermediate
[19] = strain 9 (R) penicillin resistant
[20] = strain 11 (R) penicillin resistant
[21] = strain 12 (R) penicillin resistant
[22] = 5×MIC, quinolone resistant strain
[23] = 10×MIC for 1 h, range over 5 quinolone susceptible strains

SMILES: CC[C@H]1OC(=O)[C@H](C)[C@@H](O[C@H]2C[C@@](C)(OC)[C@@H](O)[C@H](C)O2)[C@H](C)[C@@H](O[C@@H]2O[C@H](C)C[C@H](N(C)C)[C@H]2O)[C@](C)(OC)C[C@@H](C)C(=O)[C@H](C)[C@@H](O)[C@]1(C)O [Clarithromycin, clarithromycin]
- MIC50 [1, 5]: 0.03 µg/mL (≈ 0.0401 µM)
- MIC90 [1, 6]: 32 µg/mL (≈ 42.8 µM)
- MIC50 [1, 7]: 2 µg/mL (≈ 2.67 µM)
- MIC90 [1, 8]: > 128 µg/mL
- MIC50 [1, 9]: 0.03 µg/mL (≈ 0.0401 µM)
- MIC90 [1, 10]: 0.06 µg/mL (≈ 0.0802 µM)
- MIC90 ([1]; Penicillin R strains): >128.0 µg/mL
- MIC (pneumococcal strains; [11]): 0.008 µg/mL (≈ 0.0107 µM)
- MIC (pneumococcal strains; [12]): 0.03 µg/mL (≈ 0.0401 µM)
- MIC (pneumococcal strains; [13]): > 64 µg/mL
- MIC (pneumococcal strains; [14]): 0.03 µg/mL (≈ 0.0401 µM)
- MIC (pneumococcal strains; [15]): 32 µg/mL (≈ 42.8 µM)
- MIC (pneumococcal strains; [16]): 0.008 µg/mL (≈ 0.0107 µM)
- MIC (pneumococcal strains; [17]): 0.016 µg/mL (≈ 0.0214 µM)
- MIC (pneumococcal strains; [18]): 0.03 µg/mL (≈ 0.0401 µM)
- MIC (pneumococcal strains; [19]): > 64 µg/mL
- MIC (pneumococcal strains; strain 10 (I)): > 64 µg/mL
- MIC (pneumococcal strains; [20]): 0.03 µg/mL (≈ 0.0401 µM)
- MIC (pneumococcal strains; [21]): > 64 µg/mL
- PAE for non-quinolone compounds ([2]; 10×MIC): 1.8 to 4.5 h

SMILES: C[C@H]1COc2c(N3CCN(C)CC3)c(F)cc3c(=O)c(C(=O)O)cn1c23 [Levofloxacin, levofloxacin]
- MIC50 [1, 5]: 1 µg/mL (≈ 2.77 µM)
- MIC90 [1, 6]: 2 µg/mL (≈ 5.53 µM)
- MIC [1, 5]: 0.5 to 4 µg/mL (≈ 1.38 to 11.1 µM)
- MIC50 [1, 7]: 1 µg/mL (≈ 2.77 µM)
- MIC90 [1, 8]: 2 µg/mL (≈ 5.53 µM)
- MIC [1, 7]: 1 to 2 µg/mL (≈ 2.77 to 5.53 µM)
- MIC50 [1, 9]: 1 µg/mL (≈ 2.77 µM)
- MIC90 [1, 10]: 2 µg/mL (≈ 5.53 µM)
- MIC [1, 9]: 0.125 to 4 µg/mL (≈ 0.346 to 11.1 µM)
- MIC50 ([1]; Streptococcus pneumoniae, all 207 strains (64 penicillin susceptible, 68 intermediate, 75 resistant)): 1 µg/mL (≈ 2.77 µM)
- MIC90 ([1]; Streptococcus pneumoniae, all 207 strains (64 penicillin susceptible, 68 intermediate, 75 resistant), read-out: MIC90): 2 µg/mL (≈ 5.53 µM)
- MIC (pneumococcal strains; [11]): 2 µg/mL (≈ 5.53 µM)
- MIC (pneumococcal strains; [12]): 1 µg/mL (≈ 2.77 µM)
- MIC (pneumococcal strains; [13]): 32 µg/mL (≈ 88.6 µM)
- MIC (pneumococcal strains; [14]): 32 µg/mL (≈ 88.6 µM)
- MIC (pneumococcal strains; [15]): 1 µg/mL (≈ 2.77 µM)
- MIC (pneumococcal strains; [16]): 2 µg/mL (≈ 5.53 µM)
- MIC (pneumococcal strains; [17]): 1 µg/mL (≈ 2.77 µM)
- MIC (pneumococcal strains; [18]): 1 µg/mL (≈ 2.77 µM)
- MIC (pneumococcal strains; [19]): 2 µg/mL (≈ 5.53 µM)
- MIC (pneumococcal strains; strain 10 (I)): 2 µg/mL (≈ 5.53 µM)
- MIC (pneumococcal strains; [20]): 1 µg/mL (≈ 2.77 µM)
- MIC (pneumococcal strains; [21]): 2 µg/mL (≈ 5.53 µM)
- number of strains with lower MICs in the presence of reserpine [3]: 7 strains
- Number of dilutions decrease after incubation with reserpine ([3]; strain 7): 2X
- Number of dilutions decrease after incubation with reserpine ([3]; strain 11): 4X
- Number of dilutions decrease after incubation with reserpine ([3]; strain 12): 2X
- Number of dilutions decrease after incubation with reserpine ([3]; strain 23): 2X
- Number of dilutions decrease after incubation with reserpine ([3]; strain 25): 2x X
- Number of dilutions decrease after incubation with reserpine ([3]; strain 26): 2x X
- Number of dilutions decrease after incubation with reserpine ([3]; strain 28): 4x X
- MIC50 [4]: 1 µg/mL (≈ 2.77 µM)
- MIC Range [4]: 0.25 to 4.0 µg/mL
- PAE [2, 22]: 1.3 h
- PAE [2, 23]: 0.9 to 2.3 h

SMILES: O=C(O)c1cn(C2CC2)c2cc(N3CCNCC3)c(F)cc2c1=O [Ciprofloxacin, ciprofloxacin]
- number of strains with lower MICs in the presence of reserpine [3]: 23 strains
- Number of dilutions decrease after incubation with reserpine ([3]; strain 1): 2x X
- Number of dilutions decrease after incubation with reserpine ([3]; strain 2): 8x X
- Number of dilutions decrease after incubation with reserpine ([3]; strain 6): 2X
- Number of dilutions decrease after incubation with reserpine ([3]; strain 8): 2X
- Number of dilutions decrease after incubation with reserpine ([3]; strain 9): 8X
- Number of dilutions decrease after incubation with reserpine ([3]; strain 10): 2X
- Number of dilutions decrease after incubation with reserpine ([3]; strain 11): 16X
- Number of dilutions decrease after incubation with reserpine ([3]; strain 13): 2X
- Number of dilutions decrease after incubation with reserpine ([3]; strain 18): 2X
- Number of dilutions decrease after incubation with reserpine ([3]; strain 19): 2X
- Number of dilutions decrease after incubation with reserpine ([3]; strain 20): 2X
- Number of dilutions decrease after incubation with reserpine ([3]; strain 21): 2X
- Number of dilutions decrease after incubation with reserpine ([3]; strain 22): 2X
- Number of dilutions decrease after incubation with reserpine ([3]; strain 23): 8X
- Number of dilutions decrease after incubation with reserpine ([3]; strain 24): 2x X
- Number of dilutions decrease after incubation with reserpine ([3]; strain 28): 8x X
- MIC50 [4]: 1 µg/mL (≈ 3.02 µM)
- MIC Range [4]: 0.25 to 8.0 µg/mL
- PAE [2, 22]: 3.7 h
- PAE [2, 23]: 0.5 to 1.5 h
- PAE ([2]; 10×MIC, quinolone resistant strain): 6.3 h

SMILES: CC[C@H]1OC(=O)[C@H](C)[C@@H](O[C@H]2C[C@@](C)(OC)[C@@H](O)[C@H](C)O2)[C@H](C)[C@@H](O[C@@H]2O[C@H](C)C[C@H](N(C)C)[C@H]2O)[C@](C)(O)C[C@@H](C)CN(C)[C@H](C)[C@@H](O)[C@]1(C)O [Azithromycin, azithromycin]
- MIC90 [1, 6]: > 128 µg/mL
- MIC50 [1, 7]: 4 µg/mL (≈ 5.34 µM)
- MIC90 [1, 8]: > 128 µg/mL
- MIC90 [1, 10]: 0.5 µg/mL (≈ 0.668 µM)
- MIC90 ([1]; Penicillin I strains): >128.0 µg/mL
- MIC90 ([1]; Penicillin R strains): >128.0 µg/mL
- MIC (pneumococcal strains; [11]): 0.008 µg/mL (≈ 0.0107 µM)
- MIC (pneumococcal strains; [12]): 0.06 µg/mL (≈ 0.0801 µM)
- MIC (pneumococcal strains; [13]): > 64 µg/mL
- MIC (pneumococcal strains; [15]): > 64 µg/mL
- MIC (pneumococcal strains; [16]): 0.03 µg/mL (≈ 0.0401 µM)
- MIC (pneumococcal strains; [19]): > 64 µg/mL
- MIC (pneumococcal strains; strain 10 (I)): > 64 µg/mL
- MIC (pneumococcal strains; [21]): > 64 µg/mL
- PAE for non-quinolone compounds ([2]; 10×MIC): 1.3 to 3.0 h
